Patent US12162857B2, “Antiviral compounds” (priority 2022, dated 2024)

Each molecule was assayed on HMPV A2 TN/94-49 (assay: HMPV antiviral assay: LLC-MK2 cells, ATP-Lite readout). Details: LLC-MK2, 168 h, MOI 0.005, 7 days incubation.
Assay type: cell-based
Description: In vitro HMPV antiviral activity was evaluated using the clinical isolate A2 strain TN 94-49 and LLC-MK2 cells (ATCC #CCL-7), an immortalized kidney epithelial cell line from Macaca mulatta. Compounds were resuspended in dimethyl sulfoxide (DMSO) at 10 mM, serially diluted and added to a 384-well source plate. Subsequently, the compounds were diluted and transferred onto 384-well assay plates using the Echo-650 automated liquid handling system (Beckman Coulter, Indiana). The test compounds were assessed in duplicate at a top concentration of 2 μM followed by 2.5-fold serial dilutions to give a total of 10 concentration points. DMSO control wells were also included on the assay plates and were either infected or not, acting as positive and negative controls. A2 TN 94-49 virus infections were performed in-suspension with LLC-MK2 cells. The cells were washed twice with PBS and removed from the cell-culture flask with 0.25% trypsin-EDTA (Thermo Fisher Scientific, MA). The trypsin-EDTA was inactivated by resuspending in 2% fetal bovine serum (FBS) and OptiMEM (ThermoFisher Scientific, MA) containing 1% penicillin-streptomycin. Cells were pelleted by centrifuging for 5 minutes at 800 rpm, the supernatant was removed, and cells were re-suspended and washed in PBS plus 100 μg/mL CaCl2). This step was performed twice. Cells were then re-suspended in serum-free (SF)-OptiMEM containing 4 μg/mL TPCK-Trypsin (Sigma Aldrich, MO), 1% penicillin-streptomycin (ThermoFisher Scientific, MA) and 100 μg/mL CaCl2). Cells were counted and seeded at a density of 5,000 cells/well, 12.5 μL/well. Virus infections were done at a multiplicity of infection (MOI) of 0.005 with 12.5 μL added per well. Virus infections were performed in infection media which contained SF-OptiMEM, 100 μg/mL CaCl2) and 1% penicillin-streptomycin. HMPV viral stocks are suspended in infection media+5% glycerol, thus an equal volume of infection media+5% glycerol was added to uninfected wells to equalize the final % glycerol across all wells of the assay plate. The final concentration of TPCK-trypsin was 2 μg/mL. The assay plates were incubated at 37° C., 5% CO2 for 7 days. After 7 days incubation, 12.5 μL of ATP-Lite (PerkinElmer, MA) was added to each well and the raw luminescence values were determined using the Envision 2104 (Perkin Elmer, MA). The average of the raw luminescence values for the cells and virus only positive control wells was subtracted from all conditions tested and the percent cell health was determined by dividing these values by the average of the cells only negative control wells. EC50 values were then calculated by non-linear regression using a four-parameter curve logistic equation. The curve fit model employed was XLFit Dose Response One Site Model 200: y=(A+(B/(1+((x/C)^D)))), where A is the minimum y value, B is the maximum y value, C is the log EC50 value, and D is the slope factor. […] EC50 ranges are as follows: A<1 μM; B>1 μM.

Structure (SMILES) | EC50
CC(C)(O)c1cc([C@@](O)(CNC(=O)c2cc(OC3CC3)c3nn(C4CC4)cc3c2)c2ccccc2)nc(-c2cc(Cl)c(F)cc2F)c1F [Example 63] | < 1000 nM
COc1cc(C(=O)NC[C@](O)(c2cc(C(C)(C)O)c(F)c(-c3cc(Cl)c(F)cc3F)n2)C2CC2)cc2cc(C3CC3)nn12 [Example 56] | < 1000 nM
COc1cc(C(=O)NC[C@@](O)(c2cccc(F)c2)c2cc(C(C)(C)O)c(F)c(-c3ccc(F)c(Cl)c3Cl)n2)cc2sc(C)nc12 [Example 107] | < 1000 nM
COc1cc(C(=O)NC[C@](O)(c2cc(C(C)(C)O)c(F)c(-c3cc(Cl)c(F)cc3F)n2)c2cccs2)cc2cn(C3CC3)nc12 [Example 113] | < 1000 nM
COc1cc(C(=O)NC[C@@](O)(c2ccccc2)c2cc(N3C(=O)CCC3C(N)=O)cc(-c3cc(Cl)c(F)cc3F)n2)cc2cn(C3CC3)nc12 (stereo partly drawn) [Example 197] | > 1000 nM
COc1cc(C(=O)NC[C@@](O)(c2cccc(F)c2)c2cc(C(C)(C)O)c(F)c(-c3cccc(Cl)c3Cl)n2)cc2cc(C3CC3)nn12 [Example 101] | < 1000 nM
COc1cc(C(=O)NC[C@@](O)(c2ccccc2)c2cc(C(C)(C)F)c(F)c(-c3cc(Cl)c(F)cc3F)n2)cc2cn(C3CC3)nc12 [Example 180] | > 1000 nM
COc1cc(C(=O)NC[C@@](O)(c2ccccc2)c2cc(C(C)(C)O)cc(-c3cccc(Cl)c3Cl)n2)cc2cn(C(F)F)nc12 [Example 150] | < 1000 nM
COc1cc(C(=O)NC[C@@](O)(c2ccccc2)c2cc(C(=O)Nc3ncc[nH]3)c(F)c(-c3cc(Cl)c(F)cc3F)n2)cc2cn(C3CC3)nc12 [Example 190] | > 1000 nM
CC(C)(O)c1cc([C@@](O)(CNC(=O)c2cc(OC3CC3)c3nn(C4CC4)cc3c2)C2CC2)nc(-c2ccc(F)c(Cl)c2F)c1F [Example 121] | < 1000 nM
COc1cc(C(=O)NC[C@](O)(c2ccc(F)c(-c3cc(Cl)c(F)cc3F)n2)C2CC2)cc2cc(Cl)c(C)nc12 [Example 176] | > 1000 nM
CC(C)(C(N)=O)c1cc([C@@](O)(CNC(=O)c2cc(Cl)c3nn(C4CC4)cc3c2)c2ccccc2)nc(-c2cc(Cl)c(F)cc2F)c1F [Example 162] | < 1000 nM
COc1cc(C(=O)NC[C@@](O)(c2ccccc2)c2nc(-c3cc(Cl)c(F)cc3F)c(F)c(C(C)(C)O)c2F)cc2sc(C)nc12 [Example 130] | < 1000 nM
COc1cc(C(=O)NC[C@@](O)(c2ccccc2)c2cc(C(C)(C)O)c(F)c(-c3ccc4c(c3Cl)OC(F)(F)O4)n2)cc2cc(C3CC3)nn12 [Example 72] | < 1000 nM
CC(C)(O)c1cc([C@@](O)(CNC(=O)c2cc(Cl)c3nn(C4CC4)cc3c2)c2ccccc2)nc(-c2ccc3c(c2Cl)OC(F)(F)O3)c1F [Example 75] | > 1000 nM
COc1cc(C(=O)NC[C@@](O)(c2cccc(F)c2)c2cc(C(C)(C)O)c(F)c(-c3ccc4c(c3Cl)OC(F)(F)O4)n2)cc2cc(C3CC3)nn12 [Example 112] | < 1000 nM
COc1cc(C(=O)NC[C@@](O)(c2ccccc2)c2cc(C(C)(C)O)c(F)c(-c3cc(Cl)c(F)cc3F)n2)cc2cn(C3CC3)nc12 [Example 60] | < 1000 nM
COc1cc(C(=O)NC[C@@](O)(c2ccccc2)c2cc(C(C)(C)O)c(Cl)c(-c3cc(Cl)c(F)cc3F)n2)cc2cn(C(F)F)nc12 [Example 134] | > 1000 nM
COc1cc(C(=O)NC[C@](O)(c2cc(C(C)(C)F)c(F)c(-c3cc(Cl)c(F)cc3F)n2)C2CC2)cc2cn(C(F)F)nc12 [Example 179] | > 1000 nM
[2H]C([2H])([2H])C(O)(c1cc([C@@](O)(CNC(=O)c2cc(OC)c3nn(C(F)F)cc3c2)C2CC2)nc(-c2cc(Cl)c(F)cc2F)c1F)C([2H])([2H])[2H] [Example 188] | < 1000 nM
CC(C)(O)c1cc([C@@](O)(CNC(=O)c2cc(Cl)c3nn(C4CC4)cc3c2)c2ccccc2)nc(-c2ccc3c(c2)OC(F)(F)O3)c1F [Example 77] | > 1000 nM
COc1cc(C(=O)NC[C@@](O)(c2ccccc2)c2cc(C(C)(C)O)cc(-c3cccc(Cl)c3Cl)n2)cc2cn(C3CC3)nc12 [Example 148] | < 1000 nM
COc1cc(C(=O)NC[C@@](O)(c2ccccc2)c2cc(C(C)(C)O)c(F)c(-c3cc(F)ccc3F)n2)cc2cn(C3CC3)nc12 [Example 83] | > 1000 nM

Structure (SMILES) | EC50
COc1cc(C(=O)NC[C@@](O)(c2ccccc2)c2cc(C(C)(C)F)c(F)c(-c3cc(Cl)c(F)cc3F)n2)cc2cn(C(F)F)nc12 [Example 182] | > 1000 nM
[2H]C([2H])([2H])C(O)(c1cc([C@@](O)(CNC(=O)c2cc(OC)c3nn(C4CC4)cc3c2)C2CC2)nc(-c2cc(Cl)c(F)cc2F)c1F)C([2H])([2H])[2H] [Example 186] | < 1000 nM
COc1cc(C(=O)NC[C@@](O)(c2cccc(F)c2)c2cc(C(C)(C)O)c(F)c(-c3cc(F)c(F)cc3F)n2)cc2cn(C(F)F)nc12 [Example 94] | < 1000 nM
CC(C)(O)c1cc([C@@](O)(CNC(=O)c2cc(Cl)c3nn(C4CC4)cc3c2)c2ccccc2)nc(-c2ccc(F)c(Cl)c2Cl)c1F [Example 68] | < 1000 nM
CCC(O)(CC)c1cc([C@@](O)(CNC(=O)c2cc(OC)c3nn(C4CC4)cc3c2)c2ccccc2)nc(-c2cc(Cl)c(F)cc2F)c1F [Example 116] | < 1000 nM
COc1cc(C(=O)NC[C@@](O)(c2ccccc2)c2cc(C(C)(C)O)cc(-c3ccc4c(c3Cl)OC(F)(F)O4)n2)cc2sc(C)nc12 [Example 157] | < 1000 nM
COc1cc(C(=O)NC[C@@](O)(c2ccccc2)c2cc(C(C)(C)O)c(F)c(-c3cc(Cl)c(F)cc3F)n2)cc2cn(C3(F)CC3)nc12 [Example 61] | < 1000 nM
COc1cc(C(=O)NC[C@@](O)(c2cccc(F)c2)c2cc(C(C)(C)O)c(F)c(-c3cc(Cl)c(F)cc3F)n2)cc2sc(C)nc12 [Example 89] | < 1000 nM
COc1cc(C(=O)NC[C@@](O)(c2ccccc2)c2cc(C(C)(C)O)c(F)c(-c3ccc(F)cc3F)n2)cc2cn(C3CC3)nc12 [Example 87] | > 1000 nM
COc1cc(C(=O)NC[C@@](O)(c2ccccc2)c2cc(C(C)(C)O)cc(-c3ccc(F)c(Cl)c3Cl)n2)cc2cn(C3CC3)nc12 [Example 152] | < 1000 nM
CC(C)(O)c1cc([C@@](O)(CNC(=O)c2cc(Cl)c3nn(C4CC4)cc3c2)c2cccc(F)c2)nc(-c2ccc3c(c2Cl)OC(F)(F)O3)c1F [Example 110] | > 1000 nM
COc1cc(C(=O)NC[C@@](O)(c2ccccc2)c2cc(C(=O)NC3CC3)c(F)c(-c3cc(Cl)c(F)cc3F)n2)cc2cn(C3CC3)nc12 [Example 194] | > 1000 nM
CNC(=O)c1cc([C@@](O)(CNC(=O)c2cc(OC)c3nn(C4CC4)cc3c2)c2ccccc2)nc(-c2cc(Cl)c(F)cc2F)c1F [Example 192] | > 1000 nM
CC(C)(O)c1cc(-c2ccc(F)c(Cl)c2Cl)nc([C@@](O)(CNC(=O)c2cc(Cl)c3nn(C4CC4)cc3c2)c2ccccc2)c1 [Example 153] | < 1000 nM
COc1cc(C(=O)NC[C@@](O)(c2ccccc2)c2cc(C(C)(C)O)c(Cl)c(-c3ccc4c(c3Cl)OC(F)(F)O4)n2)cc2cn(C(F)F)nc12 [Example 138] | < 1000 nM
COc1cc(C(=O)NC[C@@](O)(c2ccccc2)c2cc(N3CC[C@H](O)C3)cc(-c3cc(Cl)c(F)cc3F)n2)cc2cn(C3CC3)nc12 [Example 198] | > 1000 nM
CC(C)(O)c1cc([C@@](O)(CNC(=O)c2cc(Cl)c3nn(C4CC4)cc3c2)c2ccccc2)nc(-c2ccc3c(c2Cl)OC(F)(F)O3)c1Cl [Example 137] | > 1000 nM
COc1cc(C(=O)NC[C@](O)(c2ccc(F)c(-c3cc(Cl)c(F)cc3F)n2)C2CC2)cc2cn(C3(F)CC3)nc12 [Example 173] | > 1000 nM
[2H]C([2H])([2H])C(O)(c1cc([C@@](O)(CNC(=O)c2cc(OC)n3nc(C4CC4)cc3c2)C2CC2)nc(-c2cc(Cl)c(F)cc2F)c1F)C([2H])([2H])[2H] [Example 187] | < 1000 nM
CC(C)(O)c1cc([C@@](O)(CNC(=O)c2cc(OC3CC3)c3nn(C4CC4)cc3c2)C2CC2)nc(-c2cc(Cl)c(F)cc2F)c1F [Example 55] | < 1000 nM
COc1cc(C(=O)NC[C@@](O)(c2ccccc2)c2cc(C(C)(C)O)cc(-c3ccc(F)c(Cl)c3Cl)n2)cc2cn(C(F)F)nc12 [Example 154] | < 1000 nM
COc1cc(C(=O)NC[C@](O)(c2cc(C(C)(C)O)c(F)c(-c3cc(Cl)c(F)cc3F)n2)c2nccs2)cc2cn(C3CC3)nc12 [Example 58] | < 1000 nM
